Assay results taken from the OligoGym collection.
“And” between values parts separate entries of the source, which are not always exact repeats. Equal entries are not always repeated. HELM strings list units from the 5' end as sugar, base in round brackets, then linkage (d deoxyribose, r ribose, m 2'-O-methyl, p phosphodiester). Methylation of C is not given here. [moe] = 2'-O-(2-methoxyethyl) (MOE); [cEt] = constrained ethyl (cEt); [sp] = phosphorothioate linkage

Target: HBV
Details: ASO

Substance | target mRNA inhibition (HepG2, 0.07 µM) | other results
RNA1{[moe](T)[sp].[cEt](G)[sp].[cEt](A)[sp].d(A)[sp].d(G)[sp].d(C)[sp].d(G)[sp].d(A)[sp].d(A)[sp].d(G)[sp].d(T)[sp].d(G)[sp].d(C)[sp].[cEt](A)[sp].[cEt](C)[sp].[moe](A)}$$$$V2.0 | 69% and 77% | –
RNA1{[moe](G)[sp].[moe](A)[sp].d(A)[sp].d(G)[sp].d(C)[sp].d(G)[sp].d(A)[sp].d(A)[sp].d(G)[sp].d(T)[sp].d(G)[sp].[moe](C)[sp].[moe](A)[sp].[moe](C)[sp].[moe](A)[sp].[moe](C)[sp].[moe](G)}$$$$V2.0 | 79% and 74% | –
RNA1{[moe](A)[sp].[moe](A)[sp].[moe](C)[sp].d(T)[sp].d(G)[sp].d(G)[sp].d(A)[sp].d(G)[sp].d(C)[sp].d(C)[sp].d(A)[sp].d(C)[sp].[moe](C)[sp].[moe](A)[sp].[moe](G)[sp].[moe](C)}$$$$V2.0 | 59% and 56% | –
RNA1{[moe](C)[sp].[cEt](T)[sp].d(G)[sp].d(G)[sp].d(A)[sp].d(G)[sp].d(C)[sp].d(C)[sp].d(A)[sp].d(C)[sp].d(C)[sp].d(A)[sp].[cEt](G)[sp].[moe](C)[sp].[cEt](A)[sp].[moe](G)}$$$$V2.0 | 56% | –
RNA1{[moe](A)[sp].[moe](C)[sp].d(C)[sp].d(A)[sp].d(C)[sp].d(T)[sp].d(G)[sp].d(A)[sp].d(A)[sp].d(C)[sp].d(A)[sp].[moe](A)[sp].[moe](A)[sp].[moe](T)[sp].[moe](G)[sp].[moe](G)[sp].[moe](C)}$$$$V2.0 | 58% and 68% | –
RNA1{[moe](A)[sp].[cEt](G)[sp].[cEt](G)[sp].d(C)[sp].d(A)[sp].d(T)[sp].d(A)[sp].d(G)[sp].d(C)[sp].d(A)[sp].d(G)[sp].d(C)[sp].d(A)[sp].[cEt](G)[sp].[cEt](G)[sp].[moe](A)}$$$$V2.0 | 72% and 70% | –
RNA1{[moe](G)[sp].[moe](T)[sp].[moe](G)[sp].[moe](C)[sp].[moe](A)[sp].d(G)[sp].d(A)[sp].d(G)[sp].d(G)[sp].d(T)[sp].d(G)[sp].d(A)[sp].d(A)[sp].d(G)[sp].[moe](C)[sp].[moe](G)[sp].[moe](A)}$$$$V2.0 | 68% and 62% | –
RNA1{[moe](A)[sp].[moe](G)[sp].[moe](A)[sp].d(G)[sp].d(G)[sp].d(T)[sp].d(G)[sp].d(A)[sp].d(A)[sp].d(G)[sp].d(C)[sp].d(G)[sp].[moe](A)[sp].[moe](A)[sp].[moe](G)[sp].[moe](T)[sp].[moe](G)}$$$$V2.0 | 70% and 52% | –
RNA1{[moe](T)[sp].[moe](G)[sp].[moe](C)[sp].[moe](A)[sp].[moe](G)[sp].[moe](A)[sp].d(G)[sp].d(G)[sp].d(T)[sp].d(G)[sp].d(A)[sp].d(A)[sp].d(G)[sp].d(C)[sp].d(G)[sp].[moe](A)[sp].[moe](A)}$$$$V2.0 | 74% and 63% | –
RNA1{[moe](T)[sp].[moe](T)[sp].d(A)[sp].d(T)[sp].d(G)[sp].d(C)[sp].d(C)[sp].d(T)[sp].d(A)[sp].d(C)[sp].d(A)[sp].[moe](G)[sp].[moe](C)[sp].[moe](C)[sp].[moe](T)[sp].[moe](C)}$$$$V2.0 | 44% and 46% | –
RNA1{[moe](G)[sp].[moe](A)[sp].[moe](T)[sp].d(G)[sp].d(A)[sp].d(G)[sp].d(G)[sp].d(C)[sp].d(A)[sp].d(T)[sp].d(A)[sp].d(G)[sp].[moe](C)[sp].[moe](A)[sp].[moe](G)[sp].[moe](C)}$$$$V2.0 | 39% and 38% | –
RNA1{[moe](G)[sp].[moe](C)[sp].[moe](A)[sp].[moe](G)[sp].[moe](A)[sp].d(G)[sp].d(G)[sp].d(T)[sp].d(G)[sp].d(A)[sp].d(A)[sp].d(G)[sp].d(C)[sp].d(G)[sp].[moe](A)[sp].[moe](A)}$$$$V2.0 | 63% and 58% | –
RNA1{[moe](C)[sp].[moe](A)[sp].d(A)[sp].d(T)[sp].d(T)[sp].d(T)[sp].d(A)[sp].d(T)[sp].d(G)[sp].d(C)[sp].d(C)[sp].[moe](T)[sp].[moe](A)[sp].[moe](C)[sp].[moe](A)[sp].[moe](G)[sp].[moe](C)}$$$$V2.0 | 53% and 46% | –
RNA1{[moe](A)[sp].[cEt](G)[sp].d(G)[sp].d(T)[sp].d(G)[sp].d(A)[sp].d(A)[sp].d(G)[sp].d(C)[sp].d(G)[sp].d(A)[sp].d(A)[sp].[cEt](G)[sp].[moe](T)[sp].[cEt](G)[sp].[moe](C)}$$$$V2.0 | 78% and 85% | target mRNA inhibition (HepG2, 0.0092593 µM): 12%; target mRNA inhibition (HepG2, 0.0277778 µM): 36%; target mRNA inhibition (HepG2, 0.0833333 µM): 67%; target mRNA inhibition (HepG2, 0.25 µM): 80%
RNA1{[moe](C)[sp].[moe](G)[sp].[moe](A)[sp].d(A)[sp].d(C)[sp].d(C)[sp].d(A)[sp].d(C)[sp].d(T)[sp].d(G)[sp].d(A)[sp].d(A)[sp].[moe](C)[sp].[moe](A)[sp].[moe](A)[sp].[moe](A)[sp].[moe](T)}$$$$V2.0 | 60% and 50% | –
RNA1{[moe](C)[sp].[moe](C)[sp].[moe](G)[sp].[moe](C)[sp].[moe](A)[sp].d(G)[sp].d(T)[sp].d(A)[sp].d(T)[sp].d(G)[sp].d(G)[sp].d(A)[sp].d(T)[sp].d(C)[sp].[moe](G)[sp].[moe](G)}$$$$V2.0 | 75% and 71% | –

Substance | target mRNA inhibition (HepG2, 0.07 µM) | other results
RNA1{[moe](T)[sp].[moe](G)[sp].d(G)[sp].d(A)[sp].d(G)[sp].d(C)[sp].d(C)[sp].d(A)[sp].d(C)[sp].d(C)[sp].d(A)[sp].[moe](G)[sp].[moe](C)[sp].[moe](A)[sp].[moe](G)[sp].[moe](G)}$$$$V2.0 | 29% and 41% | –
RNA1{[moe](T)[sp].[moe](G)[sp].d(A)[sp].d(A)[sp].d(G)[sp].d(C)[sp].d(G)[sp].d(A)[sp].d(A)[sp].d(G)[sp].d(T)[sp].[moe](G)[sp].[moe](C)[sp].[moe](A)[sp].[moe](C)[sp].[moe](A)}$$$$V2.0 | 69% and 54% | –
RNA1{[moe](G)[sp].[cEt](G)[sp].[cEt](T)[sp].d(G)[sp].d(A)[sp].d(A)[sp].d(G)[sp].d(C)[sp].d(G)[sp].d(A)[sp].d(A)[sp].d(G)[sp].d(T)[sp].[cEt](G)[sp].[cEt](C)[sp].[moe](A)}$$$$V2.0 | 79% and 75% | –
RNA1{[moe](T)[sp].[cEt](G)[sp].d(G)[sp].d(A)[sp].d(G)[sp].d(C)[sp].d(C)[sp].d(A)[sp].d(C)[sp].d(C)[sp].d(A)[sp].d(G)[sp].[cEt](C)[sp].[moe](A)[sp].[cEt](G)[sp].[moe](G)}$$$$V2.0 | 59% and 42% | –
RNA1{[moe](A)[sp].[moe](A)[sp].[moe](C)[sp].[moe](T)[sp].[moe](G)[sp].[moe](G)[sp].d(A)[sp].d(G)[sp].d(C)[sp].d(C)[sp].d(A)[sp].d(C)[sp].d(C)[sp].d(A)[sp].d(G)[sp].[moe](C)[sp].[moe](A)}$$$$V2.0 | 70% and 50% | –
RNA1{[moe](A)[sp].[moe](T)[sp].[moe](G)[sp].[moe](A)[sp].d(G)[sp].d(G)[sp].d(C)[sp].d(A)[sp].d(T)[sp].d(A)[sp].d(G)[sp].d(C)[sp].d(A)[sp].[moe](G)[sp].[moe](C)[sp].[moe](A)}$$$$V2.0 | 54% and 49% | –
RNA1{[moe](G)[sp].[moe](T)[sp].[moe](T)[sp].d(C)[sp].d(C)[sp].d(G)[sp].d(C)[sp].d(A)[sp].d(G)[sp].d(T)[sp].d(A)[sp].d(T)[sp].[moe](G)[sp].[moe](G)[sp].[moe](A)[sp].[moe](T)[sp].[moe](C)}$$$$V2.0 | 60% and 54% | –
RNA1{[moe](T)[sp].[moe](A)[sp].[moe](T)[sp].[moe](G)[sp].[moe](C)[sp].d(C)[sp].d(T)[sp].d(A)[sp].d(C)[sp].d(A)[sp].d(G)[sp].d(C)[sp].d(C)[sp].d(T)[sp].[moe](C)[sp].[moe](C)}$$$$V2.0 | 47% and 42% | –
RNA1{[moe](C)[sp].[cEt](A)[sp].[cEt](A)[sp].d(T)[sp].d(T)[sp].d(T)[sp].d(A)[sp].d(T)[sp].d(G)[sp].d(C)[sp].d(C)[sp].d(T)[sp].d(A)[sp].[cEt](C)[sp].[cEt](A)[sp].[moe](G)}$$$$V2.0 | 49% and 41% | –
RNA1{[moe](A)[sp].[moe](C)[sp].[moe](G)[sp].[moe](T)[sp].d(G)[sp].d(C)[sp].d(A)[sp].d(G)[sp].d(A)[sp].d(G)[sp].d(G)[sp].d(T)[sp].d(G)[sp].[moe](A)[sp].[moe](A)[sp].[moe](G)[sp].[moe](C)}$$$$V2.0 | 62% and 57% | –
RNA1{[moe](A)[sp].[cEt](C)[sp].[cEt](T)[sp].d(G)[sp].d(A)[sp].d(A)[sp].d(C)[sp].d(A)[sp].d(A)[sp].d(A)[sp].d(T)[sp].d(G)[sp].d(G)[sp].[cEt](C)[sp].[cEt](A)[sp].[moe](C)}$$$$V2.0 | 67% and 64% | –
RNA1{[moe](T)[sp].[moe](G)[sp].d(C)[sp].d(A)[sp].d(G)[sp].d(A)[sp].d(G)[sp].d(G)[sp].d(T)[sp].d(G)[sp].d(A)[sp].[moe](A)[sp].[moe](G)[sp].[moe](C)[sp].[moe](G)[sp].[moe](A)}$$$$V2.0 | 46% and 36% | –
RNA1{[moe](C)[sp].[moe](G)[sp].d(T)[sp].d(G)[sp].d(C)[sp].d(A)[sp].d(G)[sp].d(A)[sp].d(G)[sp].d(G)[sp].d(T)[sp].[moe](G)[sp].[moe](A)[sp].[moe](A)[sp].[moe](G)[sp].[moe](C)}$$$$V2.0 | 51% and 60% | –
RNA1{[moe](T)[sp].[cEt](G)[sp].d(C)[sp].d(A)[sp].d(G)[sp].d(A)[sp].d(G)[sp].d(G)[sp].d(T)[sp].d(G)[sp].d(A)[sp].d(A)[sp].[cEt](G)[sp].[moe](C)[sp].[cEt](G)[sp].[moe](A)}$$$$V2.0 | 77% and 86% | target mRNA inhibition (HepG2, 0.0092593 µM): 5%; target mRNA inhibition (HepG2, 0.0277778 µM): 39%; target mRNA inhibition (HepG2, 0.0833333 µM): 70%; target mRNA inhibition (HepG2, 0.25 µM): 85%
RNA1{[moe](A)[sp].[moe](A)[sp].[moe](G)[sp].[moe](C)[sp].[cEt](G)[sp].[cEt](A)[sp].d(A)[sp].d(G)[sp].d(T)[sp].d(G)[sp].d(C)[sp].d(A)[sp].d(C)[sp].[moe](A)[sp].[moe](C)[sp].[moe](G)[sp].[moe](G)}$$$$V2.0 | – | target mRNA inhibition (HepG2, 0.009375 µM): 26%; target mRNA inhibition (HepG2, 0.01875 µM): 29%; target mRNA inhibition (HepG2, 0.0375 µM): 30%; target mRNA inhibition (HepG2, 0.075 µM): 64%; target mRNA inhibition (HepG2, 0.15 µM): 80%; target mRNA inhibition (HepG2, 0.3 µM): 91%
